The record followed here is ChEMBL document CHEMBL2321701 (J Med Chem, 2013).

SMILES strings stand for the structures. Activity calls are given as the source filed them.

Data set [1] relates to Plasmodium falciparum. Nature of the data set: microbe, parasite or virus in culture. Particulars: K1.
Data set [2] relates to Plasmodium berghei (mouse). As to the kind of experiment: Antimalarial activity against chloroquine-sensitive Plasmodium berghei infected mouse assessed as cured animal at 30 mg/kg, po measured on day 30 postinfection.
For data set [3], the system named is Plasmodium falciparum. Nature of the data set: animal or person. As to conditions: NF54.
The test system of data set [4] is Plasmodium berghei (mouse). Nature of the data set: Antimalarial activity against chloroquine-sensitive Plasmodium berghei infected mouse assessed as survival at 30 mg/kg, po.
Data set [5] has as its system Plasmodium falciparum. Nature of the data set: Antimalarial activity against chloroquine-sensitive Plasmodium falciparum NF54 infected mouse assessed as reduction in parasitemia at 30 mg/kg, po measured on day 3 postinfection relative to control. It counts as functional. On the set-up: scale not given: the % may be the effect or the level left.
Data set [6] can be described thus: AUC (0 to 24 hrs) in mouse at 30 mg/kg, po by LC-MS analysis. It counts as ADME, organism-based. On the set-up: time < 24 hr, dose 30 mg/kg, route oral. Particulars: plasma.
A short description of data set [7]: Partition coefficient, log P of the compound. It counts as physicochemical. As to conditions: octanol/water.
Data set [8] in a line: Intrinsic clearance in mouse liver microsomes at 1 uM after 60 mins by LC-MS analysis. It counts as ADME, Microsome. Particulars: read-out: CLH. In general terms: Liver microsomes are vesicles of endoplasmic reticulum, rich in cytochrome P450 enzymes.
A short description of data set [9]: Dissociation constant, pKa of the compound. It counts as physicochemical.
The nature of data set [10]: Half life in mouse whole blood. In kind it is ADME, tissue-based.
A short description of data set [11]: Lipophilicity, log D of the compound at pH 7.4. In kind it is physicochemical. As to conditions: buffer.
Data set [12] in a line: Plasma concentration in Swiss outbred mouse at 30 mg/kg, po at 24 hrs by LC-MS analysis. It counts as ADME, organism-based. Also on record: dose 30 mg/kg, route oral.

What is called IC50 is the midpoint of a concentration-inhibition curve. Turning to `O[C@@H](c1cc(C(F)(F)F)nc2c(C(F)(F)F)cccc12)[C@H]1CCCCN1` (relative stereo) [(S,R)-MEFLOQUINE], the figures for the IC50 in the data set on Plasmodium falciparum [1] and with Plasmodium falciparum [3] were 7.2 nM and 14 nM, respectively. Also, in data set [2], the result was inactive. Further, the Survival in data set [4] amounted to 22 days. Further, in the data set with Plasmodium falciparum [5], the Activity worked out at 99.6%.

The AUC(0-t) is exposure summed from dosing to a finite time, without extrapolation to infinity. As a reminder, the logP is a log measure of how a compound divides between an organic and an aqueous phase. In general, pKa refers to the pH at which an ionisable group is half protonated. What is called half-life is the time needed for the level to fall by half in the phase considered. In general, logD refers to the decadic logarithm of the distribution of all forms, ionised or not, between an organic phase and buffer at a given pH. For `CC(C)(N)CNC(=O)CC1CCC2(CC1)OOC1(OO2)C2CC3CC(C2)CC1C3` (configuration not stated), the IC50 with Plasmodium falciparum [1] stood at 0.9 nM; in the data set with Plasmodium falciparum [3] it was 1.7 nM. In addition, in data set [6], the AUC(0-t) at 24 h was 13.5 µM·h. Further, the outcome in [2] was inactive. Moreover, in [7], the logP is 2.26. Besides, the microsomal CLint at 1 µM in [8] stood at 14 µL/min/mg. Moreover, in [4], the Survival turned out to be 9 days. Further, the pKa in data set [9] turned out to be 9.05. In data set [10], this compound showed a half-life of 54.6 min. Also, in the data set with Plasmodium falciparum [5], the Activity is reported as 99.5%. This compound displayed a logD in [11] of 0.87. In addition, in [12], the concentration at 24 h was under 1 ng/mL.

On to `c1cc([C@H]2CC[C@@]3(CC2)C[C@@]2(OO3)C3CC4CC(C3)CC2C4)ccc1OCCN1CCOCC1`, for which the IC50 with Plasmodium falciparum [1] was determined as 370 nM; in the data set with Plasmodium falciparum [3], 1200 nM. Besides, in [7], the logP came to 5.66. The microsomal CLint at 1 µM in [8] was 28 µL/min/mg. The pKa in data set [9] came to 6.82. The compound also had a log distribution coefficient (logD) in [11] of 5.56.

Regarding `C[C@H]1[C@H](OC(=O)CCC(=O)O)O[C@@H]2O[C@@]3(C)CC[C@H]4[C@H](C)CC[C@@H]1[C@@]24OO3` [ARTESUNATE], the outcome in [2] was inactive. Moreover, in [4], the Survival worked out at 9 days. The Activity in the data set with Plasmodium falciparum [5] is 92%.

For `CC(C)(N)CNC(=O)C[C@H]1CC[C@@]2(CC1)C[C@@]1(OO2)C2CC3CC(C2)CC1C3`, the half-inhibitory concentration (IC50) in the data set on Plasmodium falciparum [1] stood at 170 nM; with Plasmodium falciparum [3], 440 nM. The same compound displayed a logP in data set [7] of 3.21. Also, in data set [8], the microsomal CLint at 1 µM is 12 µL/min/mg. The same compound had a pKa in [9] of 9.05. Moreover, the half-life in data set [10] was 60 min. Further, the logD in [11] turned out to be 1.83.

Regarding `CCN(CC)CCCC(C)Nc1ccnc2cc(Cl)ccc12` (configuration not stated) [CHLOROQUINE], the outcome in data set [2] was inactive. The Survival in [4] is 10 days.

For the compound `c1cc([C@H]2CC[C@]3(CC2)OO[C@]2(O3)C3CC4CC(C3)CC2C4)ccc1OCCN1CCOCC1` [ARTEFENOMEL], the IC50 in the data set on Plasmodium falciparum [1] was 2.8 nM; in the data set on Plasmodium falciparum [3] it was 3.4 nM. The AUC(0-t) at 24 h in data set [6] amounted to 52.7 µM·h. Moreover, the outcome in data set [2] was Active. In data set [7], the logP is 4.63. In addition, in data set [4], the Survival was over 30 days. In [9], the pKa was 6.81. In the data set with Plasmodium falciparum [5], the Activity is over 99.9%. In data set [11], this compound came in with a logD of 4.53. In addition, the concentration at 24 h in data set [12] was over 200 ng/mL.

Turning to `CC(C)(N)CNC(=O)CC1CCC2(CC1)COC1(OO2)C2CC3CC(C2)CC1C3` (configuration not stated), the IC50 with Plasmodium falciparum [1] stood at 19 nM; with Plasmodium falciparum [3], 29 nM. Besides, the AUC(0-t) at 24 h in data set [6] is 22.4 µM·h. Also, the outcome in data set [2] was inactive. Further, the logP in data set [7] was determined as 2.44. Moreover, the microsomal CLint at 1 µM in [8] is under 7 µL/min/mg. Besides, in [4], the Survival was found to be 15 days. The pKa in data set [9] worked out at 9.05. Also, in data set [10], the half-life was 138 min. Further, in the data set with Plasmodium falciparum [5], the Activity is 99.1%. The compound further showed a logD in data set [11] of 1.05. The compound further showed a concentration at 24 h in [12] of over 10 ng/mL.

`CC(C)(N)CNC(=O)C[C@H]1CC[C@]2(CC1)OO[C@]1(O2)C2CC3CC(C2)CC1C3` [OZ277] showed an exposure AUC(0-t) at 24 h in data set [6] of 5.13 µM·h. The outcome in data set [2] was inactive. In addition, the logP in data set [7] was found to be 2.07. In addition, the microsomal CLint at 1 µM in data set [8] turned out to be 17 µL/min/mg. In addition, the Survival in data set [4] turned out to be 11 days. This compound had a pKa in [9] of 9.05. Besides, in data set [10], the half-life was 55.8 min. In the data set on Plasmodium falciparum [5], the Activity turned out to be 99.9%. The logD in data set [11] stood at 0.69. In addition, the concentration at 24 h in [12] is under 1 ng/mL.
